Test results published in patent US9394338B2, “Glutathione analogs and uses thereof” (REGENTS OF THE UNIVERSITY OF MINNESOTA, priority 2011, dated 2016).

Key:
Type in all cases: in vivo
APP/PS1 mice [1] = test: Morris water maze; details: for escape latency, hidden platform: 500 mg/Kg i.p. 3×/week
Protocol: (§1) Efficacy Study Design. To determine the effect of intraperitoneal and oral Ψ-GSH treatment, the study was divided in four groups (10 mice/group). 1. APP/PS1 mice-vehicle control, 2. APP/PS1 mice-Ψ-GSH i.p. 500 mg/kg, 3. APP/PS1 mice-Ψ-GSH oral 500 mg/kg, 4. Non-transgenic wild type mice-vehicle control. All the animals in the above-said groups were treated with saline or Ψ-GSH three times a week for 12 weeks, starting at the age of three to four months. Eleven weeks after the start of the treatment, the animals were tested in the Morris water maze, and twelve weeks after the start of the treatment, the animals were sacrificed for histopathological analysis.
Behavior Study. Eleven weeks after the beginning of the treatment, the animals were tested for one week in an open field water maze. The maze consists of a white circular tank (120 cm diameter) of water (23±1° C.) rendered opaque with nontoxic crayola paint. The mice were placed in the water at the edge of the pool and allowed to swim in order to locate a hidden, but fixed escape platform, using extra-maze cues.
On Day 1, the mice were be placed in the pool and allowed to swim freely for 60 s. If an animal could not locate the hidden platform within that time, it was placed manually upon the platform and left there for 10 s. Each animal was tested in four trials per day. The inter-trial interval was 15 min. Each start position was used equally in a pseudorandom order, and the animals were always placed in the water facing the wall. The platform was placed in the middle of northeast quadrant of the pool (approximately 30 cm from the side of the pool). The mouse's task throughout the experiment was to find and climb onto the platform, escaping the water. Once the mouse learned the task (Day 4, Trial 16), a probe trial was conducted 24 hours after the last trial of acquisition on Day 4.
In the probe trial (i.e., Trial 17, day 5), the platform was removed from the pool and animals were allowed to swim for 60 s. Their ability to remember the location of the previously present escape platform was quantified in proportion to the residence time of the mouse in the quadrant previously containing the platform. Immediately following the probe trial, visible platform was reintroduced at a different location (i.e southeast quadrant) along with a visible flag. Mice were trained to locate this cued platform in 4 trials conducted in the aforementioned manner.

APP/PS1 mice [2] = test: Brain protein carbonyl determination
Protocol: as §1
Protein Carbonyl Determination. Brains were homogenized in cold buffer (50 mM phosphate, pH 7.0, containing 1 mM EDTA containing protease inhibitors) and centrifuged at 10,000×g for 15 min at 4° C. The supernantent was mixed with 0.5 ml of 10 mM 2,4-dinitrophenylhydrazine (DNPH)/2 M HCL (or 2 M HCl alone for blanks). Samples were placed in a sample holder and incubated in the dark at room temperature for one hour vortexing intermittently. […] The concentration of DNPH was determined at its maximum wavelength (360 nm) and the molar absorption coefficient of 22,000 M^−1 cm^−1 was used to quantify the levels of protein carbonyls. Total protein concentration was determined by BCA protein assay kit (Pierce, Rockford, Ill.). […]

Swiss Webster Mice = test: ACP (acetaminophen) overdose rescue and effects on normal liver
Protocol: 36-Male Swiss Webster Mice (HSD) were fasted over-night and then brought to the lab at 8:00 am the following day and weighed. Food was kept out of the cages until after the final drug injection. Mice were divided into treatment groups as below in Table 2.
Thirty minutes post overdose with 370 mg/kg ACP, the following were evaluated for the groups in Table 2:
N-acetylcysteine (NAC) at 7.35 mmol/kg;
Ψ-GSH at three different doses, 3.67, 2.45 and 1.22 mmol/kg; and
examine effects of Ψ-GSH on normal liver at rescue doses.

APP/PS1 mice [3] = test: Brain lipid peroxidation (TBARS) assay
Protocol: as §1
Lipid Peroxidation Assay. The levels of lipid peroxidation were quantified by the thiobarbituric acid-reactive substances (TBARS) assay. Brain homogenate was treated with 2 ml of (1:1:1) ratio (TBA) thiobarbituric acid -(TCA) trichloroacetic acid -(HCl) chloridic acid reagent (TBA 0.37%, 0.25 N HCL and 15% TCA) and placed in water bath for 15 min, cooled and centrifuged and then clear supernatant was measured at 535 nm against reference blank. Protein was determined by the BCA protein assay kit. TBARS were normalized to the protein content in each sample and then expressed as percentage of the corresponding values in non-transgenic saline controls.

APP/PS1 mice [4] = test: Brain ROS assay (DCFH-DA)
Protocol: as §1
ROS Assay. ROS levels were quantified via the 2′-7′-dichlorofluorescein-diacetate (DCFH-DA) assay. […] The reaction was then stopped by placing it on ice and the formation of oxidized fluorescent 2′-7′-dichlorofluorescein (DCF) was measured with a fluorescence plate reader (BioTek SynergyHT, VT, USA) using excitation and emission wavelengths at 488 and 525 nm, respectively. The final results were corrected for protein concentration and then expressed as percentage of the corresponding values in saline treated wild-type mice. All steps were performed in the dark and DCF formation was also monitored immediately after DCFH-DA was added to the homogenate (t=0 min) in order to subtract background autofluorescence.

Structure (SMILES): N[C@@H](CNC(=O)N[C@@H](CS)C(=O)NCC(=O)O)C(=O)O [Ψ-GSH, γ-Gla-Cys-Gly-OH]
- escape latency, hidden platform (APP/PS1 mice [1]; APP-PS1 mice, day 3 of training): 17.91 ± 4.65 s
- escape latency, hidden platform (APP/PS1 mice [1]; APP-PS1 mice, day 4 of training): 14.64 ± 2.61 s
- time in the target quadrant, probe trial (APP/PS1 mice [1]; APP-PS1 mice, i.p., 24 h after training): 38.43±3.73%
- path length (APP/PS1 mice [1]; APP-PS1 mice, i.p., last day of training): 2.69±0.47 m
- Path lengths vs saline-treated controls (APP/PS1 mice [1]; APP-PS1 mice, oral): insignificantly different
- escape latency, visible platform (APP/PS1 mice [1]; APP/PS1 mice, i.p., end of four trials): 6.75 ± 1.49 s
- time in the target quadrant, probe trial (APP/PS1 mice [1]; APP/PS1 mice, oral): 21.76±5.36%
- spatial memory development and escape latencies vs saline-treated group (APP/PS1 mice [1]; APP/PS1 mice, oral 3×/week for 3 months, significant (p<0.05) on day 2 only): Trends toward higher spatial memory development and lower escape latencies
- Protein carbonyls in brain (WT saline = 100%) (APP/PS1 mice [2]; i.p.): 97.8±6.30%
- levels of protein carbonylation (APP/PS1 mice [2]; oral): unaffected
- liver histopathology after ACP overdose (Swiss Webster Mice; 370 mg/kg ACP + rescue agent): absence of necrotic tissue
- ALT levels after ACP overdose (Swiss Webster Mice; 370 mg/kg ACP, rescue 30 min later at half molar equivalent of NAC): decrease in ALT levels comparable to that caused by NAC
- tolerability when given alone (Swiss Webster Mice; mouse, in vivo): safe and well tolerated
- TBARS levels in brain (WT saline = 100%) (APP/PS1 mice [3]; i.p.): 95.3±5.51%
- levels of lipid peroxidation (APP/PS1 mice [3]; oral): unaffected
- total brain ROS levels, increase over WT mice (APP/PS1 mice [4]; i.p.): 6%
- levels of ROS (APP/PS1 mice [4]; oral): unaffected
